Experimental data as given in patent publication US11021493B2, “1,4-thiazine dioxide and 1,2,4-thiadiazine dioxide derivatives as beta-secretase inhibitors and methods of use” (AMGEN INC., priority 2016, dated 2021).

What was measured:
BACE1 [1] = molecular target: T1, BACE1 (Homo sapiens (Human), UniProt P56817); assay: In vitro enzymatic BACE1 FRET assay; assay type: biochemical; details: read-out: BACE1 Enzyme IC50
Target sequence in this assay (P56817 46-501): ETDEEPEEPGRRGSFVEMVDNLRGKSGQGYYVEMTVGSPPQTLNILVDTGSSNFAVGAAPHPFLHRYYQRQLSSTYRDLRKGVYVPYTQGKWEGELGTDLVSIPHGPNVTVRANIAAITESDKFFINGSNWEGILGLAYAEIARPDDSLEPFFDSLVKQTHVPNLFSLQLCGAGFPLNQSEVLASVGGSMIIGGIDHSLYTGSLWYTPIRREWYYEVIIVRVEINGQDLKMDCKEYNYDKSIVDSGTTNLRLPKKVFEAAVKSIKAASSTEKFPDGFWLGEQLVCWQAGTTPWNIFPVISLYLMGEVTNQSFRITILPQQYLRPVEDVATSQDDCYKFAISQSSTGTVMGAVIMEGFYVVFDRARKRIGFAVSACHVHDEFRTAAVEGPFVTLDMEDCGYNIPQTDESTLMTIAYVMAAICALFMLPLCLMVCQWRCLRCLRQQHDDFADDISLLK

BACE1 [2] = molecular target: T1, BACE1; assay: In vitro BACE1 cell-based assay (Aβ40 in conditioned medium of cells stably expressing APP, HTRF); details: Aβ40 in conditioned media after 24 h incubation
Target sequence in this assay (P56817 46-501, species assumed): as the sequence (P56817 46-501) above

Cathepsin D (CatD) = Cathepsin D (CatD) (Homo sapiens (Human), UniProt P07339); assay: In vitro enzymatic Cathepsin D (CatD) FRET assay; assay type: biochemical; details: read-out: Cat D Enzyme IC50
human recombinant BACE2 = human recombinant BACE2 (Homo sapiens (Human), UniProt Q9Y5Z0); assay: In vitro enzymatic BACE2 FRET assay; assay type: biochemical; details: read-out: BACE2 Enzyme IC50
human recombinant BACE2, sequence (Q9Y5Z0 63-518): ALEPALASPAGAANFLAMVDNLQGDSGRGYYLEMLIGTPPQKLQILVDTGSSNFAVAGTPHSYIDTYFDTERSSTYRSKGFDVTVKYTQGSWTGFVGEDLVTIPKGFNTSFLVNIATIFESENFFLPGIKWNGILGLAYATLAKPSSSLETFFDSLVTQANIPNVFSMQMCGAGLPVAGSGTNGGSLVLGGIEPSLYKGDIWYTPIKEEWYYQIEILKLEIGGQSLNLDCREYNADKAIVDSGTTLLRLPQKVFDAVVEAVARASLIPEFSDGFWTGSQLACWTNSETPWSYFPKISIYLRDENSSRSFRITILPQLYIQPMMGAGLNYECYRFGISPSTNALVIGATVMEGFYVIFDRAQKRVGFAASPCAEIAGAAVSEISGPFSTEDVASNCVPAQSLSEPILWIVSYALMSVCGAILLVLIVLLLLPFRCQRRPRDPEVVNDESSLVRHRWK

Cathepsin D (CatD), sequence (P07339 65-412, species assumed): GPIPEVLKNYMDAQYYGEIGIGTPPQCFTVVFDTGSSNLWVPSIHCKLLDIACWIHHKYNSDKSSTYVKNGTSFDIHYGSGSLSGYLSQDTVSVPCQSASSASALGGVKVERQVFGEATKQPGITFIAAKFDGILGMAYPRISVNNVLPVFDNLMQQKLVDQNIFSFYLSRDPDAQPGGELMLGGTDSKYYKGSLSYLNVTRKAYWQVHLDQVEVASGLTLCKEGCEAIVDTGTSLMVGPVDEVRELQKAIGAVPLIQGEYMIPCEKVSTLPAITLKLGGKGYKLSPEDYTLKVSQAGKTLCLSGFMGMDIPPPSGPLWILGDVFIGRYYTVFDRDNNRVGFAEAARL

IC50 (BACE1 [1]) [µM] | IC50 (BACE1 [2]) [µM] | IC50 (Cathepsin D (CatD)) [µM] | IC50 (human recombinant BACE2) [µM] | SMILES
0.179 | 0.656 | 111 | 0.024 | COc1cc(/C(F)=C/c2ccc(F)c([C@]3(C)CS(=O)(=O)N(C)C(N)=N3)c2)ncc1Cl [Example 230, (R,Z)-3-amino-5-(5-(2-(5-chloro-4-methoxypyridin-2-yl)-2-fluorovinyl)-2-fluorophenyl)-2,5-dimethyl-5,6-dihydro-2H-1,2,4-thiadiazine 1,1-dioxide]
0.023 | 0.148 | 29.1 | 0.186 | CN1C(N)=N[C@](C)(c2cc(/C=C(\F)c3cnc(OCC(F)(F)F)cn3)ccc2F)CS1(=O)=O [Example 117, (R,Z)-3-amino-5-(2-fluoro-5-(2-fluoro-2-(5-(2,2,2-trifluoroethoxy)pyrazin-2-yl)vinyl)phenyl)-2,5-dimethyl-5,6-dihydro-2H-1,2,4-thiadiazine 1,1-dioxide]
0.001 | 0.004 | 65.3 | 0.044 | CC#CCOc1cnc(/C(F)=C/c2ccc(F)c([C@@]3(C)N=C(N)[C@@]4(CF)CC[C@@H]3S4(=O)=O)c2)cn1 [Example 137, (1R,4R,5S)-2-amino-4-(5-((Z)-2-(5-(but-2-yn-1-yloxy)pyrazin-2-yl)-2-fluorovinyl)-2-fluorophenyl)-1-(fluoromethyl)-4-methyl-8-thia-3-azabicyclo[3.2.1]oct-2-ene 8,8-dioxide]
0.046 | 1.61 | 13.8 | 0.155 | CC1(C)C(N)=N[C@](C)(c2cc(/C=C(\F)c3cnc(OCC4CCCCC4)cn3)ccc2F)CS1(=O)=O [Example 150, (R,Z)-5-amino-3-(5-(2-(5-(cyclohexylmethoxy)pyrazin-2-yl)-2-fluorovinyl)-2-fluorophenyl)-3,6,6-trimethyl-3,6-dihydro-2H-1,4-thiazine 1,1-dioxide]
0.007 | 0.035 | 136 | 0.012 | CC1(C)C(N)=N[C@](C)(c2cc(/C=C(\F)c3ncc(C#N)cc3Cl)ccc2F)CS1(=O)=O [Example 268, (R,Z)-6-(2-(3-(5-amino-3,6,6-trimethyl-1,1-dioxido-3,6-dihydro-2H-1,4-thiazin-3-yl)-4-fluorophenyl)-1-fluorovinyl)-5-chloronicotinonitrile]
0.007 | 0.341 | 47 | 0.014 | CN1C(N)=N[C@](C)(c2cc(/C=C(\F)c3cc(F)c(C#N)cn3)ccc2F)CS1(=O)=O [Example 226, 6-((Z)-2-(3-((5R)-3-amino-2,5-dimethyl-1,1-dioxido-5,6-dihydro-2H-1,2,4-thiadiazin-5-yl)-4-fluorophenyl)-1-fluoroethenyl)-4-fluoro-3-pyridinecarbonitrile]
0.006 | 0.033 | 54.4 | 0.04 | CN1C(N)=N[C@](C)(c2cc(/C=C(\F)c3ccc(OC(F)(F)F)cn3)ccc2F)CS1(=O)=O [Example 258, (R,Z)-3-amino-5-(2-fluoro-5-(2-fluoro-2-(5-(trifluoromethoxy)pyridin-2-yl)vinyl)phenyl)-2,5-dimethyl-5,6-dihydro-2H-1,2,4-thiadiazine 1,1-dioxide]
0.007 | 0.026 | 93.7 | 0.075 | CN1C(N)=N[C@](C)(c2cc(/C=C(\F)c3ccc(C#N)cn3)ccc2F)C(C)(C)S1(=O)=O [Example 180, (R,Z)-6-(2-(3-(3-amino-2,5,6,6-tetramethyl-1,1-dioxido-5,6-dihydro-2H-1,2,4-thiadiazin-5-yl)-4-fluorophenyl)-1-fluorovinyl)nicotinonitrile]
0.021 | 0.06 | > 400 | 0.182 | Cc1nnc(COc2cnc(/C(F)=C/c3ccc(F)c([C@@]4(C)N=C(N)[C@@]5(CF)CC[C@@H]4S5(=O)=O)c3)cn2)o1 [Example 119, (1R,4R,5S)-2-amino-4-(2-fluoro-5-((Z)-2-fluoro-2-(5-((5-methyl-1,3,4-oxadiazol-2-yl)methoxy)pyrazin-2-yl)vinyl)phenyl)-1-(fluoromethyl)-4-methyl-8-thia-3-azabicyclo[3.2.1]oct-2-ene 8,8-dioxide]
0.626 | 3.58 | 172 | 0.683 | CC1(C)C(N)=N[C@](C)(c2cc(/C=C(\F)c3cc4c(cn3)OCCO4)ccc2F)[C@@H](F)S1(=O)=O (single isomer, unassigned) [Example 213]
0.193 | 0.739 | 90.5 | 0.425 | CC1(C)C(N)=N[C@](C)(c2cc(/C=C(\F)c3cnc(OCCC(F)(F)F)cn3)ccc2F)CS1(=O)=O [Example 142, (R,Z)-5-amino-3-(2-fluoro-5-(2-fluoro-2-(5-(3,3,3-trifluoropropoxy)pyrazin-2-yl)vinyl)phenyl)-3,6,6-trimethyl-3,6-dihydro-2H-1,4-thiazine 1,1-dioxide]
0.002 | 0.017 | 58 | 0.006 | CN1C(N)=N[C@](C)(c2cc(/C=C(\F)c3ncc(C#N)cc3Cl)cc(F)c2F)CS1(=O)=O [Example 276, (R,Z)-6-(2-(3-(3-amino-2,5-dimethyl-1,1-dioxido-5,6-dihydro-2H-1,2,4-thiadiazin-5-yl)-4,5-difluorophenyl)-1-fluorovinyl)-5-chloronicotinonitrile]
0.005 | 0.004 | 137 | 0.021 | Cc1cc(C#N)cnc1/C(F)=C/c1ccc(F)c([C@]2(C)CS(=O)(=O)N(C)C(N)=N2)c1 [Example 245, 6-((Z)-2-(3-((5R)-3-amino-2,5-dimethyl-1,1-dioxido-5,6-dihydro-2H-1,2,4-thiadiazin-5-yl)-4-fluorophenyl)-1-fluoroethenyl)-5-methyl-3-pyridinecarbonitrile]
0.392 | 0.099 | 107 | 0.554 | CN1C(N)=N[C@](C)(c2cc(/C=C(\F)c3ncc4c(n3)OCCO4)ccc2F)CS1(=O)=O [Example 234, (R,Z)-3-Amino-5-(5-(2-(6,7-dihydro-[1,4]dioxino[2,3-d]pyrimidin-2-yl)-2-fluorovinyl)-2-fluorophenyl)-2,5-dimethyl-5,6-dihydro-2H-1,2,4-thiadiazine 1,1-dioxide]
0.187 | 0.181 | 57.5 | 0.478 | CC1(C)C(N)=N[C@](C)(c2cc(/C=C(\F)c3cnc(OCCn4cccn4)cn3)ccc2F)CS1(=O)=O [Example 157, (R,Z)-3-(5-(2-(5-(2-(1H-pyrazol-1-yl)ethoxy)pyrazin-2-yl)-2-fluorovinyl)-2-fluorophenyl)-5-amino-3,6,6-trimethyl-3,6-dihydro-2H-1,4-thiazine 1,1-dioxide]
0.06 | 2.22 | 61.8 | 0.059 | CC1(C)C(N)=N[C@](CF)(c2cc(/C=C(\F)c3cnc(Cl)cn3)ccc2F)CS1(=O)=O [Example 189, (S,Z)-5-amino-3-(5-(2-(5-chloropyrazin-2-yl)-2-fluorovinyl)-2-fluorophenyl)-3-(fluoromethyl)-6,6-dimethyl-3,6-dihydro-2H-1,4-thiazine 1,1-dioxide]
